We go through 1 substance from patent publication US8518883B2, “Method of reducing deleterious effects of ischemia by administration of a thrombopoietin receptor ligand” (MCW Research Foundation, Inc., priority 2006, dated 2013).

Assay [1] deals with Sprague Dawley rats. Briefly: Coronary artery ligation model, regional myocardial ischemia in vivo, Tpo given 15 min prior to ischemia. Further details: species or system rat. On the procedure: (§1) Animals used in this study were adult male Sprague Dawley rats (200-350 g, generally 300 g). Animals were housed under standard conditions and allowed to feed ad lib. The Animal Care and Use Committee of the Medical College of Wisconsin approved all procedures performed in accordance with the regulations adopted by the National Institutes of Health.
(§2) Rats were anesthetized with sodium pentobarbital (50 mg/kg i.p.). Heparin was administered (150 U/kg i.p.) to prevent the formation of a thrombus in the coronary vasculature. A myocardial infarction was produced via the ligation of the left main artery using 6-0 prolene suture (See, e.g., Clements-Jewery, et al., Br. J. Pharmacol. 135:807-815, 2002; Farkas, et al., J. Cardiovasc. Pharmacol. 39:412-424, 2002). The left main coronary artery was identified and ligated with a 5-0 Prolene suture threaded through a polyethylene tube to act as an occluder. A control group included sham operated hearts in which only a suture was passed around the left main coronary artery was performed.
Animals were treated with Tpo (0.005-0.5 micrograms/kg) administered intravenously for 15 minutes prior to the onset of ischemia. Regional ischemia and reperfusion were induced by tightening the occluder and by releasing it. Hearts were then subjected to 30 minutes regional ischemia followed by 3 hours reperfusion. Recovery of left ventricular developed pressure and infarct size/area at risk at 3 hours reperfusion were used to assess resistance to myocardial ischemia. For characterization of infarction size, hearts were perfused with 10 ml bicarbonate buffer containing triphenyltetrazolium chloride (SIGMA) at 37° C.
The heart was sectioned in 2 mm segments from apex to atrio-ventricular groove in a transverse fashion. Each segment was recorded and placed in formalin. After twenty-four (24) hours, the specimen was digitally photographed in a camera mount to normalize specimen-to-lens distance. Each photograph was then appended to Adobe Photoshop (Adobe™) to measure pixel density of infarcted versus non-infarcted areas. The percentage of infarction of each slide was expressed as a percentage of the entire area of the heart.
There was no significant difference in body weight, heart weight or risk zone size between groups. […] Significant differences were found for mean arterial pressure and rate pressure for some groups when compared to sham. For each group, the area at risk compared to total left ventricle weight was calculated. There were no significant differences seen between groups (data not shown).

The subject of assay [2] is Sprague Dawley rats. Kind of assay: Coronary artery ligation model, Tpo given after the onset of ischemia. Format: in vivo, rat. The settings on record: Tpo 0.05 μg/kg 15 min prior to reperfusion (15 min after onset of 30 min regional ischemia). On the procedure:
FIG. 9 is a graphic depiction of the effect of Tpo (0.05 μg/kg) on myocardial infarct size in vivo (as percentage % of area at risk) when administered intravenously 15 minutes after the onset of 30 minutes regional myocardial ischemia in vivo induced by suture ligation of the left main coronary artery and 3 hours reperfusion. *=P<0.05, with Tpo vs. without Tpo (control).
as §1
(§3) A myocardial infarction was produced via the ligation of the left main artery using 6-0 prolene suture (See, e.g., Clements-Jewery, et al., supra, 2002; Farkas, et al., supra, 2002). Rats were anesthetized with sodium pentobarbital (50 mg/kg i.p.). The left main coronary artery was identified and ligated with a 5-0 Prolene suture threaded through a polyethylene tube to act as an occluder. […]
(§4) The heart was sectioned in 2 mm segments from apex to atrio-ventricular groove in a transverse fashion. Each segment was recorded and placed in formalin. […] The percentage of infarction of each slide was expressed as a percentage of the entire area of the heart.

The subject of assay [3] is Sprague Dawley rats. Briefly: Coronary artery ligation model, Tpo given after the onset of reperfusion. The settings on record: Tpo 0.05 μg/kg i.v. 10 seconds following reperfusion after 30 min regional ischemia. Format: in vivo, rat. Here is the method:
FIG. 10 is a graphic depiction of the effect of Tpo (0.05 μg/kg) on myocardial infarct size in vivo (as percentage % of area at risk) when administered intravenously 10 seconds after the onset of 3 hours reperfusion following 30 minutes regional myocardial ischemia in vivo induced by suture ligation of the left main coronary artery. *=P<0.05, with Tpo vs. without Tpo (control).
as §1, §3, §4

For assay [4], the system named is Sprague Dawley rats. Briefly: Coronary artery ligation model, delayed cardioprotection, Tpo given 24 hours before ischemia. The settings on record: Tpo 0.05 micrograms/kg 24 hours before 30 min regional ischemia, 3 hours reperfusion. It counts as in vivo, rat. On the procedure: Animals used in this study were adult male Sprague Dawley rats (200-350 g, generally 300 g). Animals were housed under standard conditions and allowed to feed ad lib.
as §2, with “supra,” for “Br. J. Pharmacol. 135:807-815,”, “Farkas” for “Farkas,”, “supra,” for “J. Cardiovasc. Pharmacol. 39:412-424,”
Animals were treated with Tpo (0.05 micrograms/kg) administered intraperitoneally and the animals allowed to recover for 24 hours prior to the onset of ischemia. Regional ischemia and reperfusion were induced by tightening the occluder and by releasing it. Hearts were then subjected to 30 minutes regional ischemia followed by 3 hours reperfusion. […]
as §4

Where [5] appears, read: 15 min ISCHEMIA, Tpo 0.005 μg/kg i.v.
Where [6] appears, read: 15 min ISCHEMIA, Tpo 0.05 μg/kg i.v.
The mark [7] stands for this setting: 15 min ISCHEMIA, Tpo 0.5 μg/kg i.v.
Setting [8] is: 3 hr REPERFUSION, Tpo 0.005 μg/kg i.v.
The mark [9] stands for this setting: 3 hr REPERFUSION, Tpo 0.05 μg/kg i.v.
The mark [10] stands for this setting: 3 hr REPERFUSION, Tpo 0.5 μg/kg i.v.

On to Thrombopoietin [Tpo], for which the Heart rate with Sprague Dawley rats [1] (setting [5]) worked out at 374 ± 12 beats/min; in the assay on Sprague Dawley rats [1] (setting [6]), 352 ± 11 beats/min; in the assay with Sprague Dawley rats [1] (setting [7]) it was 382 ± 13 beats/min; in the assay on Sprague Dawley rats [1] (setting [8]), 359 ± 13 beats/min; in the assay with Sprague Dawley rats [1] (setting [9]), 332 ± 11 beats/min; with Sprague Dawley rats [1] (setting [10]), 364 ± 13 beats/min. The Heart rate in the assay with Sprague Dawley rats [1] (BASELINE, Tpo 0.005 μg/kg i.v.) is listed as 386 ± 17 beats/min; in the assay with Sprague Dawley rats [1] (BASELINE, Tpo 0.05 μg/kg i.v.), 342 ± 16 beats/min; in the assay with Sprague Dawley rats [1] (BASELINE, Tpo 0.5 μg/kg i.v.), 371 ± 11 beats/min. Moreover, the Mean arterial pressure in the assay with Sprague Dawley rats [1] (setting [5]) was found to be 104 ± 11 mmHg; in the assay with Sprague Dawley rats [1] (setting [6]) it was 124 ± 11 mmHg; in the assay on Sprague Dawley rats [1] (setting [7]), 121 ± 13 mmHg; in the assay on Sprague Dawley rats [1] (setting [8]), 92 ± 7 mmHg; in the assay with Sprague Dawley rats [1] (setting [9]), 105 ± 11 mmHg; with Sprague Dawley rats [1] (setting [10]), 108 ± 16 mmHg. For the same substance, the Mean arterial pressure in the assay with Sprague Dawley rats [1] (BASELINE, Tpo 0.005 μg/kg i.v.) was 133 ± 13 mmHg; with Sprague Dawley rats [1] (BASELINE, Tpo 0.05 μg/kg i.v.) it was 138 ± 6 mmHg; with Sprague Dawley rats [1] (BASELINE, Tpo 0.5 μg/kg i.v.), 144 ± 6 mmHg. For the same substance, in the assay with Sprague Dawley rats [1] (Tpo 0.005-0.5 μg/kg i.v. 15 min prior to ischemia), the “Optimal concentration of Tpo that afforded maximum reduction of infarct size” value stood at 0.05 µg/kg. In the assay on Sprague Dawley rats [1] (Tpo i.v. 15 min prior to 30 min regional ischemia, 3 hours reperfusion, 'U' shaped dose dependence), the “Post ischemic myocardial infarct size” value is “decreased”. Also, the Myocardial infarct size result in the assay on Sprague Dawley rats [2], in the assay on Sprague Dawley rats [3] and with Sprague Dawley rats [4] was “decrease” throughout.
